Laboratory results as given in ChEMBL document CHEMBL2074519, “Molecular evidence and functional expression of a novel drug efflux pump (ABCC2) in human corneal epithelium and rabbit cornea and its role in ocular drug efflux” (Int J Pharm, 2006).

Key:
[1] = target: T1, ATP-binding cassette sub-family C member 2 (Homo sapiens, UniProt Q92887); experiment: TP_TRANSPORTER: increase cell accumulation of erythromycin in hMRP2-expressing MDCK2 cells; type: functional, cell-based; settings: dog, mdck-ii
T1 sequence (Q92887 whole entry): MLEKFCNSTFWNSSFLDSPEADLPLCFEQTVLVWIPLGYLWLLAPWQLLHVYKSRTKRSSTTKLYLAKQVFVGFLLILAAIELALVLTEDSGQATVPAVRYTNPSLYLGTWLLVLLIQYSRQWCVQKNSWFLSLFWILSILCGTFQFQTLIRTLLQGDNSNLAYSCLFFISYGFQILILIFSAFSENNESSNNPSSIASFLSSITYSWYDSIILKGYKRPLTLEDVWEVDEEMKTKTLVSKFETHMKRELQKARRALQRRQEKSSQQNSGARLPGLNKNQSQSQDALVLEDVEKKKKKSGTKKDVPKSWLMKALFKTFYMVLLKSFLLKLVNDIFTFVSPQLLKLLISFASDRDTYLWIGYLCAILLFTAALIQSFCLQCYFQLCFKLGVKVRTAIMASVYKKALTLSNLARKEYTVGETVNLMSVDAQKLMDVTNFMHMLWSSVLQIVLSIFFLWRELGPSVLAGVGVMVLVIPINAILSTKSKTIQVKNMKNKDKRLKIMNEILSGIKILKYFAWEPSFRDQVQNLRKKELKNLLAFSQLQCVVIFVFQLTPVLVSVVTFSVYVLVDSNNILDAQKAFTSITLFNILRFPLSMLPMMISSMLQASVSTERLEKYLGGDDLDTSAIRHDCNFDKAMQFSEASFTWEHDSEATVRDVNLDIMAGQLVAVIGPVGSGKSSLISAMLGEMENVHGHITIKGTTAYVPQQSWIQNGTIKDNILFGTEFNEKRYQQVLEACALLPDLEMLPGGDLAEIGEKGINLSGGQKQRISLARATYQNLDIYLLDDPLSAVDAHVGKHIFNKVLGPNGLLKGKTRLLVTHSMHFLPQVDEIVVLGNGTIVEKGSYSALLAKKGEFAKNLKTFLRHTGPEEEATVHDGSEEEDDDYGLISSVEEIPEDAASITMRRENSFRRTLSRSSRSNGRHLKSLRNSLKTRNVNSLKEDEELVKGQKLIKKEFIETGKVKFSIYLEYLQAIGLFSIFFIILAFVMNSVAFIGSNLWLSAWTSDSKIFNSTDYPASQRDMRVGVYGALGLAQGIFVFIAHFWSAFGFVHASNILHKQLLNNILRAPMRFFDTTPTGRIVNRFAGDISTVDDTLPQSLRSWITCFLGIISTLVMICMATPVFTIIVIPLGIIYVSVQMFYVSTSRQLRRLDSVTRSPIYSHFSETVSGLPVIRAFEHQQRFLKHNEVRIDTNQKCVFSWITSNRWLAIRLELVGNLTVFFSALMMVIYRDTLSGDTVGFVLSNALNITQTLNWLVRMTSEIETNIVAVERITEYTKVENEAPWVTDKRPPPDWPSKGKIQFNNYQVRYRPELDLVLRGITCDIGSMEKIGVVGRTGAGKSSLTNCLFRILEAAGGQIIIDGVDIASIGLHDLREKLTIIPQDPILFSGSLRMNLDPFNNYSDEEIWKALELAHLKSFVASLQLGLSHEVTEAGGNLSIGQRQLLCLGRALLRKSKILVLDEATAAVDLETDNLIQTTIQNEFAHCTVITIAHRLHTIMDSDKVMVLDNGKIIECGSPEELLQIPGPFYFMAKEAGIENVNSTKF

[2] = target: T1, ATP-binding cassette sub-family C member 2; experiment: TP_TRANSPORTER: increase cell accumulation of cyclosporine-A in hMRP2-expressing MDCK2 cells; type: functional, cell-based; settings: dog, mdck-ii

Activity [1]: 195% | Activity [2]: 156%
SMILES: CN(C)C(=O)CCSC(SCCC(=O)O)c1cccc(/C=C/c2ccc3ccc(Cl)cc3n2)c1 (configuration not stated) [MK-571]
